From patent US20220251044A1, “CRYSTAL FORM OF HYPOXIA-INDUCIBLE FACTOR-PROLYL HYDROXYLASE INHIBITOR” (CRYSTAL PHARMACEUTICAL (SUZHOU) CO., LTD., priority 2019, published 2022)
“Also recorded” adds a separate entry of the source.

What was measured:
Assay type in all cases: physicochemical
[1] = Crystalline form stability in the formulation process (XRPD); settings: capsule formulation of Table 17, process of Table 18
Description: Form CSI of the present disclosure and WO2014014835 Form A were made into capsules using the formulation in Table 17 and the preparation process in Table 18. The XRPD patterns were collected before and after the formulation process. […] [table] [table]

[2] = Compressibility (tablet hardness, tensile strength); settings: 80 mg, compressed at 10 kN
Description: ENERPAC manual tablet press was used for compression. 80 mg of Form CSI and WO2014014835 Form A were weighed and added into the dies of a φ6 mm round tooling, compressed at 10 kN, then stored at room temperature for 24 h until complete elastic recovery. Hardness (H) was tested with an intelligent tablet hardness tester. Diameter (D) and thickness (L) were tested with a caliper. Tensile strength of the powder was calculated with the following formula: T=2H/πDL*9.8. Under a certain force, the greater the tensile strength, the better the compressibility.

[3] = Kinetic solubility in SGF, FaSSIF, FeSSIF and water
Description: The parameters for kinetic solubility tests of the present disclosure are as follows:
When solubility test is used to predict the in vivo performance of a drug, it is critical to simulate in vivo conditions as closely as possible. For oral medication, Simulated Gastric Fluid (SGF), Fasted-State Simulated Intestinal Fluid (FaSSIF), Fed-State Simulated Intestinal Fluid (FeSSIF) can be used to simulate the condition in vivo and predict the effects of feeding, thus solubility in such mediums is closer to that in vivo.
20 mg of Form CSI and 20 mg of WO2014014835 Form A were suspended into 4.0 mL of SGF, 4.0 mL of FaSSIF, 4.0 mL of FeSSIF and 4.0 mL of water to get saturated solutions. After equilibrated for 1 h, 4 h, 8 h and 24 h, the concentrations (μg/mL) of Compound I of the saturated solutions were measured by UPLC.

[4] = Stability of Form CSI on storage (XRPD form, chemical purity)
Description: The parameters for purity tests of the present disclosure are as follows: [table] Approximately 5 mg of solid samples of Form CSI were stored under different conditions of 25° C./60% RH, 40° C./75% RH and 60° C./75% RH. Chemical purity and crystalline form were checked by HPLC and XRPD, respectively.

[5] = Intrinsic dissolution (IDR); settings: for IDR: slope of data within 5-120 minutes
Description: The parameters for intrinsic dissolution tests in the present disclosure are as follows:
Approximately 100 mg of Form CSI or WO2014014835 Form A was added into the cavity of the die, and then compressed at 10 kN and held for 0.5 minute to obtain a tablet having a surface area of 0.5 cm^2. The die with the tablet still embedded was put into a dissolution apparatus to test the intrinsic dissolution. The slope (in μg/min) of the regression line was calculated according to the data within 5-120 minutes. IDR (in μg/min/cm^2) was further calculated according to the slope.

Hygroscopicity by DVS = experiment: Hygroscopicity by DVS
Description: Dynamic Vapor Sorption (DVS) was measured via an SMS (Surface Measurement Systems Ltd.) intrinsic DVS instrument. Its control software is DVS-Intrinsic control software. Typical parameters for DVS test are as follows: Temperature: 25° C. Gas and flow rate: N2, 200 mL/min dm/dt: 0.002%/min RH range: 0% RH to 95% RH DVS was applied to test the hygroscopicity of Form CSI and WO2014014835 Form A with about 10 mg of samples. The weight gains at each relative humidity were recorded in a cycle of 0-95%-0 RH. XRPD test was applied before and after DVS. Description and definition of hygroscopicity (general notice 9103 drug hygroscopicity test guidelines in 2015 edition of Chinese Pharmacopoeia, test at 25° C.±1° C., 80% RH. The definition of hygroscopicity in the 9th European Pharmacopoeia 5.11 is similar to the Chinese Pharmacopoeia.).

[6] = Pressure stability on tableting (XRPD)
Description: Certain amount of Form CSI was compressed into tablets under different pressures with suitable tableting die. Crystalline forms before and after tableting were checked by XRPD.

[7] = Physical stability on grinding (XRPD); settings: ground manually for 5 min in a mortar
Description: Form CSI and WO2014014835 Form A was ground manually for 5 min in a mortar.

[8] = 25° C./60% RH, sealed, 3 months
[9] = 40° C./75% RH, sealed, 3 months

Crystalline form before and after the formulation process (XRPD) [1]: remains stable
Tensile strength ([2]; T=2H/πDL*9.8): 1.22 MPa
Hardness ([2]; φ6 mm round tooling, after 24 h): 2.47 kgf
Kinetic solubility (concentration of Compound I in saturated solution) ([3]; FaSSIF, 1 hour): 617.0 µg/mL
Kinetic solubility (concentration of Compound I in saturated solution) ([3]; FaSSIF, 4 hours): 934.6 µg/mL
Kinetic solubility (concentration of Compound I in saturated solution) ([3]; FaSSIF, 8 hours): 1043.5 µg/mL
Kinetic solubility (concentration of Compound I in saturated solution) ([3]; FaSSIF, 24 hours): 1109.6 µg/mL
Kinetic solubility (concentration of Compound I in saturated solution) ([3]; FeSSIF, 1 hour): 180.4 µg/mL
Kinetic solubility (concentration of Compound I in saturated solution) ([3]; FeSSIF, 4 hours): 270.3 µg/mL
Kinetic solubility (concentration of Compound I in saturated solution) ([3]; FeSSIF, 8 hours): 295.3 µg/mL
Kinetic solubility (concentration of Compound I in saturated solution) ([3]; FeSSIF, 24 hours): 314.4 µg/mL
Kinetic solubility (concentration of Compound I in saturated solution) ([3]; SGF, 1 hour): 22.7 µg/mL
Kinetic solubility (concentration of Compound I in saturated solution) ([3]; SGF, 4 hours): 24.0 µg/mL
Kinetic solubility (concentration of Compound I in saturated solution) ([3]; SGF, 8 hours): 24.2 µg/mL
Kinetic solubility (concentration of Compound I in saturated solution) ([3]; SGF, 24 hours): 24.0 µg/mL
Kinetic solubility (concentration of Compound I in saturated solution) ([3]; water, 1 hour): 18.2 µg/mL
Kinetic solubility (concentration of Compound I in saturated solution) ([3]; water, 4 hours): 21.9 µg/mL
Kinetic solubility (concentration of Compound I in saturated solution) ([3]; water, 8 hours): 34.1 µg/mL
Kinetic solubility (concentration of Compound I in saturated solution) ([3]; water, 24 hours): 25.7 µg/mL
Chemical purity during storage ([4]; 25° C./60% RH): above 99.5%
Time the drug substance kept stable (crystalline state unchanged) ([4]; 25° C./60% RH): at least three months
Crystalline form (XRPD) after storage ([4]; 25° C./60% RH, open, 3 months): Form CSI
Purity after storage ([4]; 25° C./60% RH, open, 3 months): 99.68%
Crystalline form (XRPD) after storage [4, 8]: Form CSI
Purity after storage [4, 8]: 99.65%
Time the drug substance kept stable (crystalline state unchanged) ([4]; 40° C./75% RH): at least three months
Chemical purity during storage ([4]; 40° C./75% RH and 60° C./75% RH): above 99.5%
Crystalline form (XRPD) after storage ([4]; 40° C./75% RH, open, 3 months): Form CSI
Purity after storage ([4]; 40° C./75% RH, open, 3 months): 99.68%
Crystalline form (XRPD) after storage [4, 9]: Form CSI
Purity after storage [4, 9]: 99.66%
Time the drug substance kept stable (crystalline state unchanged) ([4]; 60° C./75% RH): at least one month
Crystalline form (XRPD) after storage ([4]; 60° C./75% RH, open, 1 month): Form CSI
Purity after storage ([4]; 60° C./75% RH, open, 1 month): 99.63%
Crystalline form (XRPD) after storage ([4]; 60° C./75% RH, sealed, 1 month): Form CSI
Purity after storage ([4]; 60° C./75% RH, sealed, 1 month): 99.68%
Crystalline form (XRPD) ([4]; Initial): Form CSI
Purity ([4]; Initial): 99.71%
Increase of dissolution rate compared with Form A ([5]; pH 4.5 PBS): 41%
Cumulative dissolution ([5]; pH4.5 PBS, 5 min, 37° C., 0.5 cm^2 tablet): 36.8 µg
Cumulative dissolution ([5]; pH4.5 PBS, 10 min): 35.6 µg
Cumulative dissolution ([5]; pH4.5 PBS, 15 min): 39.8 µg
Cumulative dissolution ([5]; pH4.5 PBS, 20 min): 50.0 µg
Cumulative dissolution ([5]; pH4.5 PBS, 25 min): 50.4 µg
Cumulative dissolution ([5]; pH4.5 PBS, 30 min): 56.0 µg
Cumulative dissolution ([5]; pH4.5 PBS, 45 min): 70.7 µg
Cumulative dissolution ([5]; pH4.5 PBS, 60 min): 83.0 µg
Cumulative dissolution ([5]; pH4.5 PBS, 90 min): 114.0 µg
Cumulative dissolution ([5]; pH4.5 PBS, 120 min): 142.3 µg
IDR ([5]; pH4.5 PBS): 1.8928 μg/min/cm^2
Cumulative dissolution ([5]; pH6.8 PBS, 5 min, 37° C., 0.5 cm^2 tablet): 440.4 µg
Cumulative dissolution ([5]; pH6.8 PBS, 10 min): 916.0 µg
Cumulative dissolution ([5]; pH6.8 PBS, 15 min): 1345.9 µg
Cumulative dissolution ([5]; pH6.8 PBS, 20 min): 1758.2 µg
Cumulative dissolution ([5]; pH6.8 PBS, 25 min): 2152.9 µg
Cumulative dissolution ([5]; pH6.8 PBS, 30 min): 2521.4 µg
Cumulative dissolution ([5]; pH6.8 PBS, 45 min): 3392.2 µg
Cumulative dissolution ([5]; pH6.8 PBS, 60 min): 4309.7 µg
Cumulative dissolution ([5]; pH6.8 PBS, 90 min): 5967.2 µg
Cumulative dissolution ([5]; pH6.8 PBS, 120 min): 7448.5 µg
IDR ([5]; pH6.8 PBS): 120.3256 μg/min/cm^2
Weight gain under 80% RH (Hygroscopicity by DVS; DVS, 25° C.): 0.12%
Crystalline form after tableting (XRPD) ([6]; pressure 10 KN): Form CSI
Crystalline form after tableting (XRPD) ([6]; pressure 15 KN): Form CSI
Crystalline form and crystallinity after grinding (XRPD) [7]: remain unchanged after grinding
Compound: Cc1nc(C(=O)NCC(=O)O)c(O)c2ccc(Oc3ccccc3)cc12 [Form CSI, [(4-hydroxy-1-methyl-7-phenoxy-isoquinoline-3-carbonyl)-amino]-acetic acid]
Hygroscopicity class (Hygroscopicity by DVS; weight gain under 80% RH): non-hygroscopic or almost non-hygroscopic; also recorded: non hygroscopic or almost non-hygroscopic
